Earlier results in patent US20040156920A1, “Extracts from plant and non-plant biomass and uses thereof” (priority 2000, published 2004).
One block for each molecule: values may come before it.

Experiments:
human blood PMN cells = system: human blood PMN cells; design: phagocytosis at higher concentration: dose or concentration left out as unconfirmed
male albino rats = conditions: 20 mg/kg body weight daily subcutaneous
[1] = system: classical complement pathway

Molecule: Wheat germ agglutinin
phagocytosis at higher concentration (human blood PMN cells): strongly inhibited phagocytosis
promotion of phagocytosis compared to Zymosan-A control (human blood PMN cells; 0.5-1.0 mg/ml): 1.8 times

Molecule: CCCCCCCCCCCC1=C(O)C(=O)C=C(O)C1=O [embelin]
sperm count and other fertility parameters (male albino rats): inhibition of sperm count and other fertility parameters

IC50 [1]: 35 µM
Molecule: CC1(C)[C@@H](O)CC[C@]2(C)[C@H]3C(=O)C=C4[C@H]5C[C@@](C)(C(=O)O)CC[C@]5(C)CC[C@@]4(C)[C@]3(C)CC[C@@H]12 [Beta-glycyrrhetinic acid]
